Measured values: ChEMBL document CHEMBL1201862, “PubChem BioAssay data set” (2004)
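Tested at 5 concentrations; 48 h exposure; 96-well plates; endpoints linearly interpolated, else capped at highest concentration. At the GI50, growth is halved.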 Activity calls are given as the source filed them. Rule as the data show it: active = GI50 up to about 1.1 µM and inactive = higher.

Columns and labels:
Assay in all cases: NCI-60 cell line screen, 48 h
MDA-MB-435 = tested on: MDA-MB-435
SK-MEL-28 = tested on: SK-MEL-28
A549 = tested on: A549
NCI-H460 = tested on: NCI-H460
SF-295 = tested on: SF-295
NCI-H226 = tested on: NCI-H226
CAKI-1 = tested on: CAKI-1
U-251 = tested on: U-251
EKVX = tested on: EKVX
OVCAR-8 = tested on: OVCAR-8
MCF7 = tested on: MCF7
UACC-257 = tested on: UACC-257
SK-OV-3 = tested on: SK-OV-3
HCT-116 = tested on: HCT-116
SF-268 = tested on: SF-268
MOLT-4 = tested on: MOLT-4
HT-29 = tested on: HT-29
Malme-3M = tested on: Malme-3M
NCI-H23 = tested on: NCI-H23
RXF 393 = tested on: RXF 393
MDA-MB-231 = tested on: MDA-MB-231
HL-60 = tested on: HL-60
UACC-62 = tested on: UACC-62
UO-31 = tested on: UO-31
M14 = tested on: M14
HCC 2998 = tested on: HCC 2998
PC-3 = tested on: PC-3
TK-10 = tested on: TK-10
LOX IMVI = tested on: LOX IMVI
SK-MEL-2 = tested on: SK-MEL-2
K562 = tested on: K562
SK-MEL-5 = tested on: SK-MEL-5
A498 = tested on: A498
NCI-H522 = tested on: NCI-H522
786-0 = tested on: 786-0
SN12C = tested on: SN12C
HOP-62 = tested on: HOP-62
IGROV-1 = tested on: IGROV-1
BT-549 = tested on: BT-549
SF-539 = tested on: SF-539
KM12 = tested on: KM12
SNB-19 = tested on: SNB-19
COLO 205 = tested on: COLO 205
MDA-N = tested on: MDA-N
DU-145 = tested on: DU-145
OVCAR-3 = tested on: OVCAR-3
SW-620 = tested on: SW-620
ACHN = tested on: ACHN
Hs-578T = tested on: Hs-578T
RPMI-8226 = tested on: RPMI-8226
HCT-15 = tested on: HCT-15
OVCAR-5 = tested on: OVCAR-5
NCI/ADR-RES = tested on: NCI/ADR-RES
SNB-75 = tested on: SNB-75
CCRF-CEM = tested on: CCRF-CEM
SR = tested on: SR
OVCAR-4 = tested on: OVCAR-4
HOP-92 = tested on: HOP-92
T47D = tested on: T47D

For `C/C(=N/NC(=S)N1CCCCC1)c1cccc(/C(C)=N\NC(=S)N2CCCCC2)n1`, the GI50 (MDA-MB-435) was 1.92 µM (inactive), the GI50 (SK-MEL-28) was 2.01 µM (inactive) and the GI50 (A549) was 3 µM (inactive). For the same compound, the GI50 (NCI-H460) was 1.89 µM (inactive), the GI50 (SF-295) was 1.95 µM (inactive) and the GI50 (NCI-H226) was 2.05 µM (inactive). The GI50 (CAKI-1) was 2.08 µM (inactive), the GI50 (U-251) was 2.04 µM (inactive) and the GI50 (EKVX) was 2.13 µM (inactive). The GI50 (OVCAR-8) was 1.67 µM (inactive), the GI50 (MCF7) was 1.86 µM (inactive) and the GI50 (UACC-257) was 2.85 µM (inactive). For the same compound, the GI50 (SK-OV-3) was 1.91 µM (inactive), the GI50 (HCT-116) was 1.74 µM (inactive) and the GI50 (SF-268) was 3.22 µM (inactive). For the same compound, the GI50 (MOLT-4) was 2.4 µM (inactive), the GI50 (HT-29) was 2.51 µM (inactive) and the GI50 (Malme-3M) was 2.29 µM (inactive). The GI50 (NCI-H23) was 3.93 µM (inactive), the GI50 (RXF 393) was 2.26 µM (inactive) and the GI50 (MDA-MB-231) was 1.31 µM (inactive). The GI50 (HL-60) was 1.84 µM (inactive), the GI50 (UACC-62) was 2.42 µM (inactive) and the GI50 (UO-31) was 1.45 µM (inactive). For the same compound, the GI50 (M14) was 1.94 µM (inactive), the GI50 (HCC 2998) was 2.33 µM (inactive) and the GI50 (PC-3) was 1.65 µM (inactive). The GI50 (TK-10) was 1.8 µM (inactive), the GI50 (LOX IMVI) was 2.07 µM (inactive) and the GI50 (SK-MEL-2) was 2.1 µM (inactive). For the same compound, the GI50 (K562) was 2.28 µM (inactive), the GI50 (SK-MEL-5) was 1.95 µM (inactive) and the GI50 (A498) was 1.69 µM (inactive). The GI50 (NCI-H522) was 1.77 µM (inactive), the GI50 (786-0) was 2.01 µM (inactive) and the GI50 (SN12C) was 1.93 µM (inactive). For the same compound, the GI50 (HOP-62) was 4.71 µM (inactive), the GI50 (IGROV-1) was 1.94 µM (inactive) and the GI50 (BT-549) was 1.92 µM (inactive). The GI50 (SF-539) was 1.92 µM (inactive), the GI50 (KM12) was 2.33 µM (inactive) and the GI50 (SNB-19) was 2.47 µM (inactive). The GI50 (COLO 205) was 2.43 µM (inactive), the GI50 (MDA-N) was 1.51 µM (inactive) and the GI50 (DU-145) was 2.23 µM (inactive). For the same compound, the GI50 (OVCAR-3) was 2.21 µM (inactive), the GI50 (SW-620) was 3.15 µM (inactive) and the GI50 (ACHN) was 1.46 µM (inactive). For the same compound, the GI50 (Hs-578T) was 2.38 µM (inactive), the GI50 (RPMI-8226) was 2.3 µM (inactive) and the GI50 (HCT-15) was 1.66 µM. The GI50 (OVCAR-5) was 0.423 µM (active), the GI50 (NCI/ADR-RES) was 2.06 µM (inactive) and the GI50 (SNB-75) was 2.62 µM (inactive). For the same compound, the GI50 (CCRF-CEM) was 3 µM (inactive) and the GI50 (SR) was 2.07 µM (inactive).

With `O=[N+]([O-])/C=C/c1cn(CCCCCCCCCCCCn2cc(/C=C/[N+](=O)[O-])c3ccccc32)c2ccccc12` the GI50 (MDA-MB-435) was > 100 µM (inactive), the GI50 (SK-MEL-28) was > 100 µM (inactive) and the GI50 (A549) was > 100 µM (inactive). The GI50 (OVCAR-4) was > 100 µM (inactive), the GI50 (NCI-H460) was > 100 µM (inactive) and the GI50 (NCI-H226) was > 100 µM (inactive). For the same compound, the GI50 (CAKI-1) was > 100 µM (inactive), the GI50 (U-251) was > 100 µM (inactive) and the GI50 (EKVX) was > 100 µM (inactive). The GI50 (OVCAR-8) was > 100 µM (inactive), the GI50 (MCF7) was > 100 µM (inactive) and the GI50 (UACC-257) was > 100 µM (inactive). The GI50 (SK-OV-3) was > 100 µM (inactive), the GI50 (HCT-116) was > 100 µM (inactive) and the GI50 (MOLT-4) was > 100 µM (inactive). For the same compound, the GI50 (HT-29) was > 100 µM (inactive), the GI50 (Malme-3M) was > 100 µM (inactive) and the GI50 (NCI-H23) was > 100 µM (inactive). The GI50 (MDA-MB-231) was > 100 µM (inactive), the GI50 (HL-60) was > 100 µM (inactive) and the GI50 (UACC-62) was > 100 µM (inactive). The GI50 (UO-31) was > 100 µM (inactive), the GI50 (M14) was > 100 µM (inactive) and the GI50 (HCC 2998) was > 100 µM (inactive). For the same compound, the GI50 (PC-3) was > 100 µM (inactive), the GI50 (TK-10) was > 100 µM (inactive) and the GI50 (LOX IMVI) was > 100 µM (inactive). The GI50 (SK-MEL-2) was > 100 µM (inactive), the GI50 (SK-MEL-5) was > 100 µM (inactive) and the GI50 (A498) was > 100 µM (inactive). For the same compound, the GI50 (NCI-H522) was > 100 µM (inactive), the GI50 (786-0) was > 100 µM (inactive) and the GI50 (SN12C) was > 100 µM (inactive). The GI50 (HOP-62) was > 100 µM (inactive), the GI50 (IGROV-1) was > 100 µM (inactive) and the GI50 (BT-549) was > 100 µM (inactive). The GI50 (SF-539) was > 100 µM (inactive), the GI50 (KM12) was > 100 µM (inactive) and the GI50 (COLO 205) was > 100 µM (inactive). For the same compound, the GI50 (MDA-N) was > 100 µM (inactive), the GI50 (DU-145) was > 100 µM (inactive) and the GI50 (HOP-92) was > 100 µM (inactive). For the same compound, the GI50 (OVCAR-3) was > 100 µM (inactive), the GI50 (SW-620) was > 100 µM (inactive) and the GI50 (ACHN) was > 100 µM (inactive). The GI50 (Hs-578T) was > 100 µM (inactive), the GI50 (RPMI-8226) was > 100 µM (inactive) and the GI50 (HCT-15) was over 100 µM. For the same compound, the GI50 (OVCAR-5) was > 100 µM (inactive), the GI50 (NCI/ADR-RES) was > 100 µM (inactive) and the GI50 (CCRF-CEM) was > 100 µM (inactive). The GI50 (SR) was > 100 µM (inactive).

In the case of `CC(C)(C)OC(=O)N(CCNS(=O)(=O)c1cccc2cnccc12)CCC(=O)ON1C(=O)CCC1=O`, the GI50 (MDA-MB-435) is reported as > 100 µM (inactive), the GI50 (SK-MEL-28) is reported as > 100 µM (inactive) and the GI50 (A549) is reported as > 100 µM (inactive). The GI50 (OVCAR-4) was > 100 µM (inactive), the GI50 (NCI-H460) was 51.9 µM (inactive) and the GI50 (T47D) was > 100 µM (inactive). For the same compound, the GI50 (SF-295) was > 100 µM (inactive), the GI50 (NCI-H226) was > 100 µM (inactive) and the GI50 (U-251) was > 100 µM (inactive). For the same compound, the GI50 (EKVX) was 6.52 µM (inactive), the GI50 (OVCAR-8) was > 100 µM (inactive) and the GI50 (MCF7) was > 100 µM (inactive). The GI50 (UACC-257) was > 100 µM (inactive), the GI50 (SK-OV-3) was > 100 µM (inactive) and the GI50 (HCT-116) was > 100 µM (inactive). The GI50 (SF-268) was > 100 µM (inactive), the GI50 (MOLT-4) was > 100 µM (inactive) and the GI50 (HT-29) was > 100 µM (inactive). For the same compound, the GI50 (Malme-3M) was > 100 µM (inactive), the GI50 (NCI-H23) was > 100 µM (inactive) and the GI50 (RXF 393) was > 100 µM (inactive). The GI50 (MDA-MB-231) was > 100 µM (inactive), the GI50 (UACC-62) was > 100 µM (inactive) and the GI50 (UO-31) was > 100 µM (inactive). For the same compound, the GI50 (M14) was > 100 µM (inactive), the GI50 (PC-3) was > 100 µM (inactive) and the GI50 (TK-10) was > 100 µM (inactive). The GI50 (LOX IMVI) was > 100 µM (inactive), the GI50 (SK-MEL-2) was > 100 µM (inactive) and the GI50 (K562) was > 100 µM (inactive). For the same compound, the GI50 (SK-MEL-5) was > 100 µM (inactive), the GI50 (NCI-H522) was > 100 µM (inactive) and the GI50 (786-0) was > 100 µM (inactive). For the same compound, the GI50 (SN12C) was > 100 µM (inactive), the GI50 (HOP-62) was > 100 µM (inactive) and the GI50 (IGROV-1) was > 100 µM (inactive). The GI50 (BT-549) was > 100 µM (inactive), the GI50 (SNB-19) was > 100 µM (inactive) and the GI50 (COLO 205) was > 100 µM (inactive). The GI50 (DU-145) was > 100 µM (inactive), the GI50 (HOP-92) was 10.4 µM (inactive) and the GI50 (OVCAR-3) was > 100 µM (inactive). For the same compound, the GI50 (SW-620) was > 100 µM (inactive), the GI50 (ACHN) was > 100 µM (inactive) and the GI50 (Hs-578T) was > 100 µM (inactive). For the same compound, the GI50 (RPMI-8226) was > 100 µM (inactive), the GI50 (HCT-15) was over 100 µM and the GI50 (OVCAR-5) was > 100 µM (inactive). The GI50 (NCI/ADR-RES) was > 100 µM (inactive), the GI50 (SNB-75) was > 100 µM (inactive) and the GI50 (SR) was > 100 µM (inactive).
